For one assay, the system named is Russian thistle. The assay is described as follows: Test D preemergence. In kind it is in vivo, Salsola kali. The arrangement: key: 0 = no effect, 100 = complete control. The source says:
Seeds of plant species selected from bluegrass (annual bluegrass, Poa annua), blackgrass (Alopecurus myosuroides), canarygrass (littleseed canarygrass, Phalaris minor), chickweed (common chickweed, Stellaria media), galium (catchweed bedstraw, Galium aparine), bromegrass, downy (downy bromegrass, Bromus tectorum), field poppy (Papaver rhoeas), field violet (Viola arvensis), green foxtail (Setaria viridis), deadnettle (henbit deadnettle, Lamium amplexicaule), Italian ryegrass (Lolium multiflorum), kochia (Kochia scoparia), lambsquarters (Chenopodium album), oilseed rape (Brassica napus), pigweed (Amaranthus retroflexus), chamomile (scentless chamomile, Matricaria inodora), Russian thistle (Salsola kali), speedwell (bird's-eye speedwell, Veronica persica), spring barley (Hordeum vulgare), spring wheat (Triticum aestivum), wild buckwheat (Polygonum convolvulus), wild mustard (Sinapis arvensis), wild oat (Avena fatua), wild radish (Raphanus raphanistrum), windgrass (Apera spica-venti), winter barley (Hordeum vulgare), and winter wheat (Triticum aestivum) were planted into a silt loam soil and treated preemergence with test chemicals formulated in a non-phytotoxic solvent mixture which included a surfactant.
At the same time, these species were planted in pots containing Redi-Earth® planting medium (Scotts Company, 14111 Scottslawn Road, Marysville, Ohio 43041) comprising spaghnum peat moss, vermiculite, wetting agent and starter nutrients and treated with postemergence applications of the test chemicals formulated in the same manner. Plants ranged in height from 2 to 18 cm (1- to 4-leaf stage). Treated plants and controls were maintained in a controlled growth environment for 7 to 21 days after which time all species were compared to controls and visually evaluated. Plant response ratings, summarized in Table D, are based on a scale of 0 to 100 where 0 is no effect and 100 is complete control. A dash (-) response means no test result.

The test system of a further assay is surinam grass. The assay can be described thus: Test C preemergence. In kind it is in vivo, Brachiaria decumbens. Particulars: for Surinam Grass plant response rating: preemergence, scale 0 (no effect) to 100 (complete control); for Plant response rating, Surinam Grass: Preemergence, 31 g ai/ha, scale 0 to 100, 0 no effect, 100 complete control. The source says: (§1) Seeds of plant species selected from blackgrass (Alopecurus myosuroides), Italian ryegrass (Lolium multiflorum), wheat, winter (winter wheat, Triticum aestivum), galium (catchweed bedstraw, Galium aparine), corn (Zea mays), large (Lg) crabgrass (Digitaria sanguinalis), giant foxtail (Setaria faberii), johnsongrass (Sorghum halepense), lambsquarters (Chenopodium album), morningglory (Ipomoea coccinea), yellow nutsedge (Cyperus esculentus), pigweed (Amaranthus retroflexus), ragweed (common ragweed, Ambrosia elatior), soybean (Glycine max), barnyardgrass (Echinochloa crus-galli), oilseed rape (Brassica napus), waterhemp (common waterhemp, Amaranthus rudis), kochia (Kochia scoparia), wild oat (Avena fatua), surinam grass (Brachiaria decumbens), foxtail, green (green foxtail, Setaria viridis), goosegrass (Eleusine indica), bromegrass, downy (downy bromegrass, Bromus tectorum), nightshade (eastern black nightshade, Solanum ptycanthum), cocklebur (common cocklebur, Xanthium strumarium), cupgrass, woolly (woolly cupgrass, Eriochloa villosa), bermudagrass (Cynodon dactylon), sunflower, (common oilseed sunflower, Helianthus annuus), Russian thistle (Salsola kali), and velvetleaf (Abutilon theophrasti) were planted into a blend of loam soil and sand and treated preemergence with test chemicals formulated in a non-phytotoxic solvent mixture which included a surfactant.
(§2) At the same time, plants selected from these crop and weed species and also barley, winter (winter barley, Hordeum vulgare), windgrass (Apera spica-venti), chickweed (common chickweed, Stellaria media), deadnettle (henbit deadnettle, Lamium amplexicaule), and canarygrass (littleseed canarygrass, Phalaris minor) were planted in pots containing Redi-Earth® planting medium (Scotts Company, 14111 Scottslawn Road, Marysville, Ohio 43041) comprising spaghnum peat moss, vermiculite, wetting agent and starter nutrients and treated with postemergence applications of test chemicals formulated in the same manner. Plants ranged in height from 2 to 18 cm (1- to 4-leaf stage) for postemergence treatments. Treated plants and controls were maintained in a greenhouse for 13 to 15 days, after which time all species were compared to controls and visually evaluated. Plant response ratings, summarized in Table C, are based on a scale of 0 to 100 where 0 is no effect and 100 is complete control. A dash (-) response means no test result.

For another assay, the system named is kochia. The assay is described as follows: Test C preemergence. In kind it is in vivo, Kochia scoparia. Particulars: for Kochia plant response rating: preemergence, scale 0 (no effect) to 100 (complete control); for Plant response rating, Kochia: Preemergence, 31 g ai/ha, scale 0 to 100, 0 no effect, 100 complete control.
From the text: as §1, §2

The next assay relates to cocklebur. The assay can be described thus: Test C preemergence. In kind it is in vivo, Xanthium strumarium. Particulars: for Cocklebur plant response rating: preemergence, scale 0 (no effect) to 100 (complete control); for Plant response rating, Cocklebur: Preemergence, 31 g ai/ha, scale 0 to 100, 0 no effect, 100 complete control.
From the text: as §1, §2

The subject of a further assay is cupgrass, woolly. The assay is described as follows: Test C postemergence. Particulars: for Plant response rating (0 to 100), Cupgrass, Woolly: postemergence; for Plant response rating, Cupgrass, Woolly: Postemergence, scale 0 to 100 (0 no effect, 100 complete control). The format is in vivo, Eriochloa villosa.
From the text: as §1, §2

Another assay relates to foxtail, green. The assay is described as follows: Test C preemergence. Particulars: for Foxtail, Green plant response rating: preemergence, scale 0 (no effect) to 100 (complete control); for Plant response rating, Foxtail, Green: Preemergence, 31 g ai/ha, scale 0 to 100, 0 no effect, 100 complete control. In kind it is in vivo, Setaria viridis.
From the text: as §1, §2

[1] abbreviates: 31 g ai/ha, scale 0 (no effect) to 100 (complete control).

This is an account of results in patent US9695155B2, “Herbicidal substituted pyrimidinyloxy benzene compounds” (E. I. DU PONT DE NEMOURS AND COMPANY, priority 2013, dated 2017).

For the compound `Clc1cnc(Oc2ccccc2-n2cc(Cl)cn2)nc1` [Compound 3], the “Plant response rating, Russian Thistle” value in the assay with Russian thistle (16 g ai/ha, scale 0 (no effect) to 100 (complete control)) was found to be 0; in the assay on Russian thistle (setting [1]), 0; in the assay with Russian thistle (62 g ai/ha, scale 0-100), 30; in the assay on Russian thistle (125 g ai/ha, scale 0-100) it was 40; in the assay with Russian thistle (250 g ai/ha, scale 0-100), 40.

As for `Clc1cnc(Oc2ccccc2-n2cc(Br)cn2)nc1` [Compound 7, 2-[2-(4-bromo-1H-pyrazol-1-yl)phenoxy]-5-chloropyrimidine], the “Surinam Grass plant response rating” value stood at 5 with surinam grass (62 g ai/ha), 30 in the assay with surinam grass (125 g ai/ha) and 85 with surinam grass (250 g ai/ha). The “Plant response rating, Surinam Grass” value in the assay on surinam grass was found to be 0. Besides, the “Kochia plant response rating” value in the assay on kochia (62 g ai/ha) is listed as 95; with kochia (125 g ai/ha), 100; with kochia (250 g ai/ha), 100. Also, the “Plant response rating, Kochia” value with kochia is 55. The “Cocklebur plant response rating” value in the assay with cocklebur (62 g ai/ha), with cocklebur (125 g ai/ha) and in the assay on cocklebur (250 g ai/ha) was 5 each time. The “Plant response rating, Cocklebur” value with cocklebur is on record as 0. Besides, the “Plant response rating (0 to 100), Cupgrass, Woolly” value is reported as 25 in the assay on cupgrass, woolly (125 g ai/ha) and 25 in the assay on cupgrass, woolly (250 g ai/ha). Moreover, the “Plant response rating, Cupgrass, Woolly” value amounted to 10 in the assay with cupgrass, woolly (31 g ai/ha, 13 to 15 days) and 20 with cupgrass, woolly (62 g ai/ha). Moreover, the “Foxtail, Green plant response rating” value stood at 90 with foxtail, green (62 g ai/ha); 90 in the assay on foxtail, green (125 g ai/ha); 95 in the assay on foxtail, green (250 g ai/ha). Further, in the assay with foxtail, green, the “Plant response rating, Foxtail, Green” value was found to be 50. Also, the “Plant response rating, Russian Thistle” value stood at 0 with Russian thistle (setting [1]); 0 with Russian thistle (62 g ai/ha, scale 0-100); 0 with Russian thistle (125 g ai/ha, scale 0-100); 0 with Russian thistle (250 g ai/ha, scale 0-100).

Turning to `Fc1cnc(Oc2ccccc2-n2cc(Br)cn2)nc1` [Compound 10, 2-[2-(4-bromo-1H-pyrazol-1-yl)phenoxy]-5-fluoropyrimidine], the “Plant response rating (0 to 100), Cupgrass, Woolly” value came out at 5 in the assay on cupgrass, woolly (125 g ai/ha) and 15 in the assay on cupgrass, woolly (250 g ai/ha). Further, the “Plant response rating, Cupgrass, Woolly” value with cupgrass, woolly (31 g ai/ha, 13 to 15 days) was 0; with cupgrass, woolly (62 g ai/ha), 5.

As to `FC(F)(F)c1cnn(-c2ccccc2Oc2ncc(Cl)cn2)c1` [Compound 16], the “Surinam Grass plant response rating” value with surinam grass (62 g ai/ha), in the assay on surinam grass (125 g ai/ha) and with surinam grass (250 g ai/ha) was 100 in each case. The “Plant response rating, Surinam Grass” value with surinam grass came to 25. In addition, the results for the “Kochia plant response rating” value in the assay with kochia (62 g ai/ha), in the assay on kochia (125 g ai/ha) and with kochia (250 g ai/ha) were 80, 85 and 100, respectively. Besides, the “Plant response rating, Kochia” value in the assay with kochia is 50. Besides, the “Cocklebur plant response rating” value is 5 with cocklebur (62 g ai/ha), 5 in the assay on cocklebur (125 g ai/ha) and 20 with cocklebur (250 g ai/ha). For the same compound, the “Plant response rating, Cocklebur” value with cocklebur came out at 0. The “Plant response rating (0 to 100), Cupgrass, Woolly” value with cupgrass, woolly (125 g ai/ha) amounted to 20; in the assay on cupgrass, woolly (250 g ai/ha), 30. The “Plant response rating, Cupgrass, Woolly” value was 5 with cupgrass, woolly (31 g ai/ha, 13 to 15 days) and 15 with cupgrass, woolly (62 g ai/ha). For the same compound, the “Foxtail, Green plant response rating” value in the assay on foxtail, green (62 g ai/ha) worked out at 90; in the assay on foxtail, green (125 g ai/ha), 90; in the assay with foxtail, green (250 g ai/ha), 90. Also, the “Plant response rating, Foxtail, Green” value with foxtail, green worked out at 90.

Turning to `FC(F)(F)c1cnn(-c2ccccc2Oc2ncc(Br)cn2)c1` [Compound 18, 5-bromo-2-[2-[4-(trifluoromethyl)-1H-pyrazol-1-yl]phenoxy]pyrimidine], the “Surinam Grass plant response rating” value was determined as 30 with surinam grass (62 g ai/ha), 100 in the assay on surinam grass (125 g ai/ha) and 100 with surinam grass (250 g ai/ha). The “Plant response rating, Surinam Grass” value in the assay with surinam grass stood at 20. Further, the “Kochia plant response rating” value with kochia (62 g ai/ha) was 60; in the assay with kochia (125 g ai/ha) it was 80; with kochia (250 g ai/ha), 98. Further, in the assay on kochia, the “Plant response rating, Kochia” value was 15. Besides, the “Cocklebur plant response rating” value with cocklebur (62 g ai/ha) was determined as 0; in the assay with cocklebur (250 g ai/ha), 15. The “Foxtail, Green plant response rating” value stood at 90 in the assay with foxtail, green (62 g ai/ha); 90 in the assay on foxtail, green (125 g ai/ha); 90 in the assay with foxtail, green (250 g ai/ha). Also, in the assay with foxtail, green, the “Plant response rating, Foxtail, Green” value stood at 85. In addition, the “Plant response rating, Russian Thistle” value is on record as 10 with Russian thistle (setting [1]); 25 with Russian thistle (62 g ai/ha, scale 0-100); 40 in the assay with Russian thistle (125 g ai/ha, scale 0-100); 95 in the assay on Russian thistle (250 g ai/ha, scale 0-100).

For `N#Cc1cccc(Oc2ncc(Cl)cn2)c1-n1cc(-n2ccc(C(F)(F)F)n2)cn1` [Compound 284], the “Plant response rating, Russian Thistle” value in the assay with Russian thistle (setting [1]) is recorded as 0; with Russian thistle (125 g ai/ha, scale 0-100) it was 20; with Russian thistle (250 g ai/ha, scale 0-100) it was 30.
